Test results taken from patent US20240025946A1, “Cyclic Tetrapeptides and Metal Complexes Thereof” (priority 2020, published 2024).
Numbered stars: 1 amine (or outer) side, 2 acyl side, 3 side chain; on linkers, the order of the positions; unused ones are H or OH. Square brackets hold non-standard residues; d marks the D form. Ends that are not written are not given here. SAsp = aspartic acid substituted by -SH; βAsp = O=C(O)[C@H](CC(=O)[*:2])N[*:1]; β3hE = N[C@@H](CCC(=O)O)CC(=O)O; βAla = NCCC(=O)O

Legend:
DH5α E. coli = experiment: In vivo recovery test: Pb detoxification of poisoned bacteria, colony counting; format: cell-based; settings: for Recovery DH5α (%): highest concentration 120 mM (10 equiv.), Pb(NO3)2 12 mM, vs poisoned untreated cells, mean; for detoxification ability in poisoned E. coli (in words): compared to the benchmark compounds, FIG. 2a
Protocol: (§1) Desalted peptides were then assessed for their ability to detoxify Pb (FIGS. 2a-d). The inventors designed two assays for rapid and reliable screening of potential CAs both in vivo on bacteria and then in vitro on human cell culture. Briefly, DH5a or HT-29 cells were first exposed to Pb(NO3)2 slightly below the minimal inhibitory concentration and then treated with various concentrations of the investigated CA, ranging from 0.1 to 10 equivalents. The viability of the cells was determined by colony counting or by crystal violet (Feoktistova et al, 2016), for the bacteria and the human cells, respectively, and was compared to poisoned cells that were not treated with any CA as the negative control. […] On the other hand, testing the compounds on human cells cannot be performed with insoluble compounds but is more relevant for medicinal purposes.
HRMS (ESI) m/z calculated for C16H26N4O4SNa^+ [M+Na]^+ 427.14442; found: 427.14447 In vivo recovery tests A single colony of DH5a E. coli WT cells was grown overnight at 37° C. and 220 rpm in Tris Minimal Medium (TMM, pH 6.0; 5 mL) without antibiotics. The culture was then diluted to an OD600 of 0.03 with additional TMM to a total volume of 5 mL, and its OD600 was monitored. Upon cell density of 0.25 (which was achieved after 3-5 h), 1 mL of the culture was transferred into a cell culture tube and was labeled as the positive control. To additional 3 mL of the culture, 36 μL of Pb(NO3)2 1 M were added (final concentration of 12 mM). Both cultures were shaken at 37° C. and 220 rpm for an additional 5 h.
Aqueous stock solutions of each CA were plated on freshly prepared agar-LB plates such that the final concentration of each compound is equal to 0.5, 1, 2, 5, and 10 equivalents, compared to the amount of Pb(NO3)2 in 50 μL pre-toxified culture. The stock solutions were prepared such that plating and equally spreading 30 μL of each solution will provide the desired amount of CA. To additional two plates, 30 μL of H2O was added.
50 μL of the pre-toxified culture were homogenously spread to each CA-containing plate, 5 h after adding the metal to the culture. The Pb-containing culture was also plated on one of the two H2O-containing plates and was labeled as the negative control. Lastly, 50 μL of the non-toxified culture were platted on the second H2O-containing plate and was labeled as positive control. All plates (positive and negative control and five plates for each examined compound) were then incubated at 37° C. overnight. The plates were then imaged, and the colonies were counted (with Vilber Quantum Visualization System). The recovery of each concentration of CA was calculated according to equation 1: […]
#CAx—number of colonies of pre-toxified culture in a plate containing X mM of CA
#NEG—number of colonies of pre-toxified culture in a plate containing no CA
(§2) Each experiment was performed on three independent occasions. Values are mean±SD of >3 repeats each performed in triplicate.

HT-29 cells [1] = experiment: In vitro recovery test: Pb detoxification of poisoned human cells, crystal violet; format: cell-based; settings: for Recovery HT-29 (%): highest concentration 10 mM (5 equiv.), vs poisoned untreated cells, mean, SD
Protocol: as §1
96-well plates were prepared such that every well contains 10,000 cells in 100 μL medium, and the cells were allowed to adhere overnight. To all wells but the positive control, 10 μL of 22 mM Pb(NO3)2 were added (final concentration 2 mM). 10 μL of H2O was added to the positive control wells. 60 min after addition of metal, 10 μL of each solution of the examined CA (2.4, 6, 12, 24, 48, and 120 mM) were added to reach final concentrations of 0.2, 0.5, 1, 2, 4, and 10 mM (which are 0.1, 0.25, 0.5, 1, 2, and 5 equivalents, respectively). To the positive control wells containing no metal and the negative control wells containing metal but no CA, 10 μL of H2O were added. Each condition was performed in triplicates. The plates were incubated at 37° C. and 5% CO2 for an additional 23 h, after which the medium was removed, washed with fresh medium and 50 μL of crystal violet solution (0.5% crystal violet powder in 20 mL MeOH and 80 mL H2O) to each well and the plates were gently shaken (60 rpm) for 20 min. The plates were then washed with H2O until no more unbound dye was observed and allowed to dry overnight. 200 μL of MeOH were added to each well, and the plates were gently shaken (60 rpm) for 20 min, after which their absorbance at 560 nm was read with a plate reader. The recovery of each concentration of CA was calculated according to equation 2:
(§3) A[CAx]—absorbance of the pre-toxified well in the presence of X mM of CA
(§4) A[blank]—absorbance of blank wells (contain nothing)
A[NEG]—absorbance of the pre-toxified well that contains no CA
as §2

HT-29 cells [2] = experiment: In vitro toxicity test, crystal violet; format: cell-based, human; settings: HT-29, 24 h; for IC50: concentration at 50% viability, mean (SD), n.d. = not detected as it is too high
Protocol: 96-well plates were prepared such that every well contains 10,000 cells in 100 μL medium, and the cells were allowed to adhere overnight.
To all wells but the positive control, 10 μL of each solution of the examined CA (2.4, 6, 12, 24, 48, and 120 mM) were added to reach final concentrations of 0.2, 0.5, 1, 2, 4, and 10 mM. To the positive control wells, 10 μL of H2O was added. Each condition was performed in triplicates. The plates were incubated at 37° C. and 5% CO2 for 24 h, after which the medium was removed, washed with fresh medium and 50 μL of crystal violet solution (0.5% crystal violet powder in 20 mL MeOH and 80 mL H2O) to each well and the plates were gently shaken (60 rpm) for 20 min. The plates were then washed with H2O until no more unbound dye was observed and allowed to dry overnight. 200 μL of MeOH were added to each well, and the plates were gently shaken (60 rpm) for 20 min, after which their absorbance at 560 nm was read with a plate reader. The toxicity of each concentration of CA was calculated according to equation 3:
as §3, §4
A[POS]—absorbance of well that contains no CA
as §2

[3] = Aqueous solubility of the peptides; format: physicochemical
Excerpt: Attempts to solubilize them, including in different pH conditions, formulation with PEG or co-solvent systems with DMSO failed. Therefore, two analogs of 1 where βAla is substituted by PAsp or PhGlu, to form peptides 1a and 1b, respectively, were synthesized. […] Their low activity might be related to either (a) competition in coordination with Pb^2+ by the two carboxylates, which destabilizes the complexation, or (b) a decrease in their metal selectivity and coordination alkali or alkaline earth metal ions.

male mice (C57BL/6) = experiment: Pb-poisoned mice: blood lead level and urinary Pb by ICP-MS; format: in vivo; settings: for BLL / Urinary Pb (ppm): 30 mg kg^−1 day^−1, days 10-16; for BLL: blood on day 18, eight mice; for Urinary Pb (ppm): urine on day 18
Protocol: Peptide 8a was then tested in mice. 40 male mice (C57BL/6) aged 6-8 weeks were provided with 20 mM Pb(OAc)2 solution as the sole water supply for seven days (days 1-7). This poisoning route mimics chronic exposure in humans. Two days after returning to clean water (day 9), they were randomly divided into five groups of eight mice. They received a single treatment per day for seven days (days 10-16) of either CaNa2EDTA, DMSA, or 8a at a concentration of 30 mg kg^−1 except for group 1 that served as the negative control (Table 3).
Blood samples (100 μL) were collected before dosing the mice on days 10-15 and on day 18, which is two days after the last dosing and the day by which the experiment was terminated. Urine was also collected from 34 animals on day 18 and was kept frozen until analysis.

[4] = inhibition at the highest concentration (10 mM), mean, SD
[5] = soluble^b = with the addition of 2 equiv. NaOH or 1 equiv. of Ca(OH)2
[6] = also different pH, PEG formulation, DMSO co-solvent failed

Compound	Recovery DH5α (%) (DH5α E. coli)	Recovery HT-29 (%) (HT-29 cells [1]; Pb(NO3)2 2 mM)	Aqueous solubility [3, 5]	detoxification ability in poisoned E. coli (in words) (DH5α E. coli)	further results
O=C([O-])CN(CCN(CC(=O)[O-])CC(=O)O)CC(=O)O.[Na+].[Na+] [Na2EDTA]	107	41			IC50 (HT-29 cells [2]): 0.6 mM; Toxicity Maximal inhibition (%) (HT-29 cells [2]; [4]): 72%
O=C1CCNC(=O)[C@H](Cc2ccccc2)NC(=O)CCNC(=O)[C@H](CS)N1 [compound 9, Cys-βAla-Phe-βAla]	180		insoluble		
CSCC[C@@H]1NC(=O)CCNC(=O)[C@H](CS)NC(=O)CCNC1=O [compound 6, Cys-βAla-Met-βAla]			insoluble	outstanding results	Aqueous solubility [3, 6]: low aqueous solubility
C[βAsp]C[βAsp] (cysteine pairing not given here) [1a]	2	106	soluble^b	unsatisfied	solubility as Na or Ca salts [3]: high solubility; Toxicity Maximal inhibition (%) (HT-29 cells [2]; [4]): 0%
O=C(O)C[C@@H]1NC(=O)CCNC(=O)[C@H](CC(=O)O)NC(=O)CCNC1=O [compound 5, Asp-βAla-Asp-βAla]	150	121	soluble^b		Toxicity Maximal inhibition (%) (HT-29 cells [2]; [4]): 44%
N[C@@H](CCC(=O)N[C@@H](CS)C(=O)NCC(=O)O)C(=O)O [GSH, glutathione]	39	126			IC50 (HT-29 cells [2]; Homo sapiens): 9.6 mM; inhibition at 10000 µM (HT-29 cells [2]; Homo sapiens, inhibition at the highest concentration (10 mM), mean, SD, read-out: Toxicity Maximal inhibition (%)): 57%
[Cys-βhGlu]2 (C[β3hE]C[β3hE]; not fully specified (bridges); printed as [Cys-βhGlu]2; also: cyclic, ring type not given here) [1b, cyclic tetrapeptide]	30		soluble^b	unsatisfied	solubility as Na or Ca salts [3]: high solubility
O=C1CCNC(=O)[C@H](Cc2c[nH]cn2)NC(=O)CCNC(=O)[C@H](CS)N1 [compound 7, Cys-βAla-His-βAla]	47		insoluble		
CSCC[C@@H]1NC(=O)CCNC(=O)[C@H](CCSC)NC(=O)CCNC1=O [compound 3, Met-βAla-Met-βAla]	139		insoluble		
O=C1CCNC(=O)[C@@H](CS)NC(=O)CCNC(=O)[C@H](CS)N1 [peptide 2, Cys-βAla-DCys-βAla]			insoluble	outstanding results	Aqueous solubility [3, 6]: low aqueous solubility
O=C(O)CN(CCN(CC(=O)O)CC(=O)O)CC(=O)O [EDTA, ethylenediaminetetraacetic acid]					effect of the counter cation (Ca vs. Na salt) on detoxification activity (HT-29 cells [1]; HT-29, FIG. 2d): higher activity as a Ca-salt
cyc-[SAsp-βAla-Asp-βAla] (cyclo([SAsp][βAla]D[βAla])) [8a]					removal of Pb in urine compared with the SOCs (male mice (C57BL/6); IV and oral, vs CaNa2EDTA and DMSA, day 18): 1.3-2.2 folds; BLL (male mice (C57BL/6); IV): 16.0 ± 1.5 µg/dL; Urinary Pb (ppm) (male mice (C57BL/6); IV): 452 ± 47 ppm; Pb expelled in urine compared with the untreated group (male mice (C57BL/6); IV, day 18): 2.9 folds; reduction of average BLL compared to no treatment (male mice (C57BL/6); IV, day 18): 2.1 folds; reduction of average BLL compared with CaNa2EDTA (male mice (C57BL/6); IV, day 18): 1.6 folds; BLL (male mice (C57BL/6); Oral): 17.7 ± 1.3 µg/dL; Urinary Pb (ppm) (male mice (C57BL/6); Oral): 435 ± 28 ppm; Pb expelled in urine compared with the untreated group (male mice (C57BL/6); oral, day 18): 2.8 folds; reduction of BLL compared with DMSA (male mice (C57BL/6); oral, day 18): 1.3 folds; reduction of BLL compared with no treatment (male mice (C57BL/6); oral, day 18): 1.9 folds; dose-dependent recovery of HT-29 cells (in words) (HT-29 cells [1]; Pb(NO3)2 2 mM, CA added 1 h later, vs all investigated peptides and standards of care, FIG. 4): best results
O=C1CCNC(=O)[C@H](CS)NC(=O)CCNC(=O)[C@H](CS)N1 [compound 1, Cys-βAla-Cys-βAla]			insoluble	outstanding results	increase of recovery of poisoned E. coli (DH5α E. coli; DH5α, treatment after Pb(NO3)2): more than 8 fold; Aqueous solubility [3, 6]: low aqueous solubility
